Data as given in patent US9738902B2, “Modified PYR/PYL receptors activated by ligands” (priority 2013, dated 2017).

How the values were obtained:
Assay type in all cases: cell-based
[1] = molecular target: T1, PYR1 K59R F108A S122G (Arabidopsis thaliana, UniProt O49686, F108A/K59R/S122G); assay: Y2H Combinatorial Mutagenesis Screen I (HAB1, X-gal)
T1 construct: expressed in transfected cells; host or cells: S. cerevisiae Y190 two-hybrid reporter strain
Description: (§1) This screening approach yielded mutants at ligand contacting residues that alter sensitivity to specific ligands. We reasoned that receptor sensitivity could be improved by systematically constructing combinations of the best mutant variants identified in the first round of screening. To test this, we constructed mutant combinations using the strongest mutations identified for mandipropamid, benzothiadiazole, benoxacor or fludioxonil sensitivity. The mutations selected for combinatorial mutagenesis are listed in bold type in Table 1; The mutant combinations were constructed using the QuickChange Lightning Multi Site-Directed PCR Mutagenesis kit (Agilent, USA) using pBD-PYR1^K59R template DNA and mutagenic primers, essentially as previously described (Mosquna et al., 2011). The mutant combinations were sequence validated, introduced into the pACT-HAB1 Y190 reporter strain and then tested for responsiveness to a range of compound concentrations (100, 50, 25, 10, 1, 0.2, 0.1 or 0 μM each test compound). These efforts yielded double mutant receptor variants with improved sensitivity for the 4 compound/receptor pairs examined (see entries labeled “Combinatorial Mutagenesis Screen I” in Table 1).
The preceding efforts identified PYR1^K59R,F108A,S122G, which is responsive to mandipropamid concentrations as low as 1 μM. […]

[2] = molecular target: T2, PYR1 K59R F108Q S122G (Arabidopsis thaliana, UniProt O49686, F108Q/K59R/S122G); assay: as above
T2 construct: expressed in transfected cells; host or cells: S. cerevisiae Y190 two-hybrid reporter strain
T2 sequence (O49686 whole entry K59R/F108Q/S122G): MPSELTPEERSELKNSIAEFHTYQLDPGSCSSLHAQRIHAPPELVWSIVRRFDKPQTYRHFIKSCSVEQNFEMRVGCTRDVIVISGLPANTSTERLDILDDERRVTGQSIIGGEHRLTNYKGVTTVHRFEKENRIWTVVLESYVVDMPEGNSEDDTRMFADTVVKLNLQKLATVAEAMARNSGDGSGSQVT
T2 sequence (Q9CAJ0 23-511 partner): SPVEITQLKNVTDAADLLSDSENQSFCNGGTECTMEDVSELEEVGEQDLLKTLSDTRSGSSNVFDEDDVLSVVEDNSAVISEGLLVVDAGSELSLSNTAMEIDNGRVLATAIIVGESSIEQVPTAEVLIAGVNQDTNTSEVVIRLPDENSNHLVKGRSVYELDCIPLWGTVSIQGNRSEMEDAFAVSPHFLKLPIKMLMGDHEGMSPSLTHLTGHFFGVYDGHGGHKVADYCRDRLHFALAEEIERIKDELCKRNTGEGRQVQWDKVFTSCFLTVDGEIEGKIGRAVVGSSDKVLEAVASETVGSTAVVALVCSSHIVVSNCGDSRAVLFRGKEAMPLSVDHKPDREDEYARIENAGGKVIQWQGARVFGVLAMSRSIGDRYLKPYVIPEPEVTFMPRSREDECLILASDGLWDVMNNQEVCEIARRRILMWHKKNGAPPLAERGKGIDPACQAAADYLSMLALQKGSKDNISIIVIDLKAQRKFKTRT
Description: as §1

[3] = molecular target: T3, PYR1 K59R F108I S122G (Arabidopsis thaliana, UniProt O49686, F108I/K59R/S122G); assay: as above
T3 construct: expressed in transfected cells; host or cells: S. cerevisiae Y190 two-hybrid reporter strain
T3 sequence (O49686 whole entry K59R/F108I/S122G): as the sequence (O49686 whole entry K59R/F108Q/S122G) above, with Q108I counted along it
T3 sequence (Q9CAJ0 23-511 partner): as the sequence (Q9CAJ0 23-511 partner) above
Description: as §1

[4] = molecular target: T4, PYR1 Y58H K59R V81I F108A S122G F150L (PYR1^MANDI) (Arabidopsis thaliana, UniProt O49686, F108A/F159L/K59R/S122G/V81I/Y58H); assay: Y2H Combinatorial Mutagenesis II (HAB1, X-gal); conditions: PYR1^MANDI, yeast two hybrid
T4 construct: expressed in transfected cells; host or cells: S. cerevisiae Y190 pACT-HAB1
T4 sequence (O49686 whole entry Y58H/K59R/V81I/F108A/S122G/F159L): as the sequence (O49686 whole entry K59R/F108Q/S122G) above, with Y58H, V81I, Q108A, F159L counted along it
T4 sequence (Q9CAJ0 23-511 partner): as the sequence (Q9CAJ0 23-511 partner) above
Description: (§2) Both of the above optimization experiments led to the identification of the following mutations that, when introduced one at a time, enhance the mandipropamid sensitivity of PYR1^K59R,F108A,S122G: Y58H, V81C, V81I, V81T, V83L, L87A, F159L, F159M, F159V, A160V and V164I. Given that these each enhance sensitivity on their own, we tested if combinations of these mutations might generate more sensitive receptors. Mutagenic primers for each of the mutations were designed and used simultaneously with the QuickChange Lightning Multi Site-Directed Mutagenesis kit (Agilent, USA) with PYR1^K59R,F108A,S122G template DNA. Individual clones were sequenced to identify bona fide combination mutants, which were transformed into the Y190 pACT-HAB1 yeast strain and assayed for mandipropamid sensitivity. These efforts led to the identification of several improved receptors (“Combinatorial Mutagenesis Screen II”, Table 1), including PYR1^Y58H,K59R,V81I,F108A,S122G,F159L, a hextuple mutant that we have named PYR1^MANDI. Yeast reporter strains expressing this mutant are responsive to mandipropamid concentrations as low as 2 nM (Table 1). Thus, the 5-step mutagenesis protocol we followed led to the construction of a mandipropamid responsive receptor with nanomolar sensitivity.

[5] = molecular target: T5, PYR1 Y58H K59R V81I F108A S122G (Arabidopsis thaliana, UniProt O49686, F108A/K59R/S122G/V81I/Y58H); assay: Y2H Combinatorial Mutagenesis II (HAB1, X-gal)
T5 construct: expressed in transfected cells; host or cells: S. cerevisiae Y190 pACT-HAB1
T5 sequence (O49686 whole entry Y58H/K59R/V81I/F108A/S122G): as the sequence (O49686 whole entry K59R/F108Q/S122G) above, with Y58H, V81I, Q108A counted along it
T5 sequence (Q9CAJ0 23-511 partner): as the sequence (Q9CAJ0 23-511 partner) above
Description: as §2

[6] = molecular target: T6, PYR1 K59R F108A S122G V81C (Arabidopsis thaliana, UniProt O49686, F108A/K59R/S122G/V81C); assay: Y2H NNK Mutagenesis (HAB1, X-gal)
T6 construct: expressed in transfected cells; host or cells: S. cerevisiae Y190 pACT-HAB1
T6 sequence (O49686 whole entry K59R/V81C/F108A/S122G): as the sequence (O49686 whole entry K59R/F108Q/S122G) above, with V81C, Q108A counted along it
T6 sequence (Q9CAJ0 23-511 partner): as the sequence (Q9CAJ0 23-511 partner) above
Protocol: (§3) The preceding efforts identified PYR1^K59R,F108A,S122G, which is responsive to mandipropamid concentrations as low as 1 μM. We next attempted to improve the mandipropamid receptor by screening for additional pocket-located mutations that improve compound responsiveness. We subjected PYR1^K59R,F108A,S122G to two separate mutagenesis experiments. We first examined the effects of adding single additional mutations at each of the other 23 ligand-contacting residues that are not altered in the PYR1^K59R,F108A,S122G backbone, using NNK codon-randomization primers. Each NNK primer was used to generate a pool of PYR1^K59R,F108A,S122G receptors containing additional mutations at a single ligand-contacting residue. DNA for this mutant pool was prepared and then transformed into a pACT-HAB1 MAV99 reporter strain, which allows URA3 based selection of active receptors (Peterson et al., 2010). The pooled yeast cells were plated on media containing 0.5 μM mandipropamid, a concentration too low to allow growth of a control MAV99 pACT-HAB1 reporter strain expressing pBD-PYR1^K59R,F108A,S122G. […] Mutants enabling ligand-dependent interactions were sequenced and plasmid DNA for these mutants was isolated and introduced into Y190 pACT-HAB1 so that X-gal staining could be utilized to evaluate receptor sensitivity. This process was repeated for each of the remaining 22 NNK primers. These efforts yielded 10 mutations (V81C, V81I, V81T, V83L, L87A, F159L, F159M, F159V, A160V, V164I) that enhance the mandipropamid sensitivity of PYR1^K59R,F108A,S122G (see entries labeled “NNK Mutagenesis Screen” in Table 1).

[7] = molecular target: T7, PYR1 K59R F108A S122G L87A (Arabidopsis thaliana, UniProt O49686, F108A/K59R/L87A/S122G); assay: Y2H NNK Mutagenesis (HAB1, X-gal)
T7 construct: expressed in transfected cells; host or cells: S. cerevisiae Y190 pACT-HAB1
T7 sequence (O49686 whole entry K59R/L87A/F108A/S122G): as the sequence (O49686 whole entry K59R/F108Q/S122G) above, with L87A, Q108A counted along it
T7 sequence (Q9CAJ0 23-511 partner): as the sequence (Q9CAJ0 23-511 partner) above
Protocol: as §3

[8] = molecular target: T8, PYR1 K59R F108A S122G F159V (Arabidopsis thaliana, UniProt O49686, F108A/F159V/K59R/S122G); assay: Y2H NNK Mutagenesis (HAB1, X-gal)
T8 construct: expressed in transfected cells; host or cells: S. cerevisiae Y190 pACT-HAB1
T8 sequence (O49686 whole entry K59R/F108A/S122G/F159V): as the sequence (O49686 whole entry K59R/F108Q/S122G) above, with Q108A, F159V counted along it
T8 sequence (Q9CAJ0 23-511 partner): as the sequence (Q9CAJ0 23-511 partner) above
Protocol: as §3

[9] = molecular target: T9, PYR1 K59R F108A S122G A160V (Arabidopsis thaliana, UniProt O49686, A160V/F108A/K59R/S122G); assay: Y2H NNK Mutagenesis (HAB1, X-gal)
T9 construct: expressed in transfected cells; host or cells: S. cerevisiae Y190 pACT-HAB1
T9 sequence (O49686 whole entry K59R/F108A/S122G/A160V): as the sequence (O49686 whole entry K59R/F108Q/S122G) above, with Q108A, A160V counted along it
T9 sequence (Q9CAJ0 23-511 partner): as the sequence (Q9CAJ0 23-511 partner) above
Protocol: as §3

[10] = molecular target: T10, PYR1 K59R F108A S122G V81I (Arabidopsis thaliana, UniProt O49686, F108A/K59R/S122G/V81I); assay: Y2H NNK Mutagenesis (HAB1, X-gal)
T10 construct: expressed in transfected cells; host or cells: S. cerevisiae Y190 pACT-HAB1
T10 sequence (O49686 whole entry K59R/V81I/F108A/S122G): as the sequence (O49686 whole entry K59R/F108Q/S122G) above, with V81I, Q108A counted along it
T10 sequence (Q9CAJ0 23-511 partner): as the sequence (Q9CAJ0 23-511 partner) above
Protocol: as §3

[11] = molecular target: T11, PYR1 K59R F108A S122G V81T (Arabidopsis thaliana, UniProt O49686, F108A/K59R/S122G/V81T); assay: Y2H NNK Mutagenesis (HAB1, X-gal)
T11 construct: expressed in transfected cells; host or cells: S. cerevisiae Y190 pACT-HAB1
T11 sequence (O49686 whole entry K59R/V81T/F108A/S122G): as the sequence (O49686 whole entry K59R/F108Q/S122G) above, with V81T, Q108A counted along it
T11 sequence (Q9CAJ0 23-511 partner): as the sequence (Q9CAJ0 23-511 partner) above
Protocol: as §3

T1 sequence (Q9CAJ0 23-511): as the sequence (Q9CAJ0 23-511 partner) above
T1 sequence (O49686 whole entry K59R/F108A/S122G): as the sequence (O49686 whole entry K59R/F108Q/S122G) above, with Q108A counted along it

C#CCOc1ccc(CCNC(=O)C(OCC#C)c2ccc(Cl)cc2)cc1OC (centres unmarked) [Mandipropamid, mandipropamid]
Threshold [1]: 1 µM
Threshold [2]: 10 µM
Threshold [3]: 10 µM
lowest mandipropamid concentration with detectable PYR1^MANDI-HAB1 interaction in yeast reporter strain [4]: 2 nM
Threshold [5]: 0.05 µM
Threshold [6]: 0.25 µM
Threshold [7]: 0.25 µM
Threshold [8]: 0.25 µM
Threshold [9]: 0.25 µM
Threshold [10]: 0.25 µM
Threshold [11]: 0.25 µM
